In patent publication US11046647B2, “Activators of the unfolded protein response” (The Board of Trustees of the University of Illinois, priority 2018, dated 2021):

Experiments:
[1] = test system: TDG cells; test: Trypan Blue exclusion cell death assay, TDG / TDG-Luc; type: cell-based, human; settings: 24 hours
From the text: (§1) TRYPAN BLUE: For decades, viable cells have been measured by their ability to exclude the dye Trypan Blue. […] Dead cells, which have lost membrane integrity, take up the dye and are blue. Thus, the percentage of dead cells is the percentage of cells that are Trypan Blue positive out of the total cell population. Quantitative assessment of Trypan Blue uptake uses a cell counter from Fisher. Since the assay is instrument based, there is no observer bias in determining the percentage of Trypan Blue positive cells.
(§2) TRYPAN BLUE ASSAYS: Assays are performed on cells in 6 well plates: 300,000 cells are plated in each well of a 6-well plate in 3 ml of medium. After 24 hours, the DMSO vehicle or the indicated compound is added (in 1000th of the vol.) The cells incubated for an additional 24 hours, and then harvested in 0.25 ml of trypsin, followed after harvest by 0.75 ml of medium. The cells are spun down and resuspended in 100-200 μl of medium left that is over the cell pellet (resuspend cells by pipetting up and down a few times). Add 10 μl to 10 μl of trypan blue. Then 10 μl is inserted into the counting slide. After inserting the slide into the Fisher TC20 counting is automatic (these many cells are needed because an accurate ratio of Trypan Blue positive to Trypan Blue negative cells requires about 200 cells in the field the instrument counts).
The Trypan Blue cell death assay was used to evaluate the ability of the active enantiomer of C-105 [(−)-105] to kill ERα positive TDG-Luc cells. For all studies, 300,000 TDG-Luc cells/well in 10% FBS were plated in a 6-well plate in triplicate. 24 hours after plating, the indicated concentrations the active enantiomer of (−)-105, or BHPI (top) ICI, or OHT (Lower left) or (+)-105 (lower right) were added. After 24 hours, the cells were harvested, and the % dead cells was determined by automated Trypan Blue exclusion using the Countess II automated hemocytometer. Percentage of viable cells was calculated by doing 100-(Cell Death %). (n=3±SEM).
TDG cells were incubated for 24 hours with 75 nM of BHPI or 75 nM of each of the indicated test compounds: 4, 6 and (±)-105 (enantiomers not separated). Cell death was determined using the instrument-based Trypan Blue exclusion assay. Structures are in the Synthesis section. […] (n=3±SEM).

[2] = test system: MCF-7 tumors; test: MCF-7 orthotopic tumor model; type: in vivo, mouse; settings: large established MCF-7 tumors; SERK-F6 10 or 40 mg/kg p.o. daily; fulv. 5 mg/mouse s.c. weekly
Procedure: FIG. 39. SERK-F6 eradicates wild-type ERα tumors via hyperactivation of aUPR. a, MCF-7 orthotopic tumors were established in Nu/J ovariectomized mice supplemented with a 60 day E2 pellet (0.36 mg) and grown to ˜400 mm^3 (28 days to establish), randomized, then treated with vehicle daily (n=3), vehicle weekly (n=3), fulv. weekly (5 mg/mouse, s.c., n=6), SERK-F6 daily (10 or 40 mg/kg p.o.). Vehicle arms were averaged. p values: *: p≤0.05, **: p≤0.01, ***: p≤0.001, ****: p≤0.0001. Tumor images were taken at the end of the study (day 21) and are representative of all tumors (n=6). b-e, MCF-7 cells were orthotopically bi-laterally grafted and tumors were grown until total tumor burden was ˜400 mm^3 prior to daily treatment with vehicle or SERK-F6 (40 mg/kg p.o.). Mice (n=5 per arm) were sacrificed after 3 days (b,c) and 7 days (d,e) and tumors harvested. […] Vinculin (Vin) was used as a loading control. […] Error bars represent S.E.M.
To probe the efficacy of SERK-F6 for killing ERα positive tumors, large MCF-7 tumors were grown and then intervened with therapy. […] The mice were then sacrificed prior to complete tumor eradication.

[3] = test system: TYS and TDG breast cancer cells; test: Killing of TYS and TDG breast cancer cells by endocrine therapy drugs; type: cell-based, human
[4] = test system: T47D cells; settings: 24 hours; up to 1,000 nM; FACS annexin V-FITC/PI
Procedure: One such change is loss of plasma membrane polarity. This is monitored using Annexin V. Dying cells also take up the dye propidium iodide. Propidium iodide (PI) fluoresces when it is intercalated into DNA. These assays monitor cells at specific stages of cell death.
FLOW CYTOMETRY (FITC) ASSAYS: Cells were seeded in 12-well plates, 75,000 cells/well, and allowed to adhere overnight. The next day, the indicated concentrations of raptinal (positive control), (−)-105, (±)-105, and (+)-105 were added and allowed to incubate at 37° C. for 24 hours (Final Volume: 1 ml, 0.1% DMSO). After incubation, cells were harvested and resuspended in 350 μl of cold Annexin binding buffer (10 mM HEPES, 140 mM NaCl, 2.5 mM CaCl2, pH 7.4) premixed with Annexin V-FITC and PI dyes. Samples were analyzed on a BD Biosciences LSRII flow cytometer, and data analysis was performed using FSC Express Version 5-6. Cell death was assessed relative to a DMSO treated control.
T47D, human breast cancer cells were plated at 75,000 cells/well. The next day, DMSO vehicle, 10 μM raptinal (control for 100% cell death), or 0, 50, 100 500 and 1,000 nM of BHPI or (±)-105, or 1,000 nM ICI/fulvestrant or 1,000 nM OHT was added. After 24 hours viable cells were determined by FACS using annexin V-FITC and propidium iodide dyes. (n=3 independent experiments ±SEM).
75,000 ERα positive T47D, human breast cancer cells, were plated/well. The next day, DMSO vehicle, 10 μM raptinal (control for 100% cell death), or 100 500 and 1,000 nM of (+)-105, or (−)-105 was added. After 24 hours viable cells were determined by FACS using annexin V-FITC and propidium iodide dyes. (n=1).

[5] = test system: T47D, TYS and TDG cells; test: MTS proliferation assay (4 days), T47D, TYS and TDG; type: cell-based, human
Procedure: FIG. 30 compares the ability of BHPI and test compounds to inhibit proliferation of T47D, TYS and TDG cells. T47D cells were in medium containing 10 FBS (which contains estrogen), TYS-4 and TDG-1 cells were in medium containing 10% cd-FBS (estrogen depleted). Cells are plated at 2,000 cells/well in 96 well plates. After 24 hours in medium containing FBS or charcoal-dextran treated FBS (depleted of endogenous estrogens), the indicated concentration of each compound (in DMSO at 1/1000th of the volume of medium) was added. After 2 days the medium was changed, and the compounds were added again. After 2 additional days (4 days total) MTS assays are used to evaluate cell proliferation. (n=6 ±S.E.M.).

[6] = test system: ERα Negative MCF-10A cells; test: Trypan Blue exclusion cell death assay, MCF-10A; type: cell-based; settings: 75 nM, 24 hours
From the text: as §1, §2
In FIG. 28, neither the test compounds nor BHPI kill non-tumorigenic ERα Negative MCF-10A breast cells. ERα Negative MCF-10A cells were maintained for 24 hours in DMSO vehicle or 75 nM of BHPI or 75 nM of each of the indicated test compounds: 4, 6 and 105. Cell death was determined using the instrument-based Trypan Blue exclusion assay. (n=3±SEM).

[7] = test system: TYS cells; test: Trypan Blue exclusion cell death assay, TYS / TYS-Luc; type: cell-based, human; settings: 24 hours
From the text: as §1, §2
The Trypan Blue cell death assay was used to evaluate the ability of the active enantiomer of 105 (−) [(−)-105] to kill ERα positive MCF-7 and TYS-Luc, human breast cancer cells. 300,000 T47D cells/well in 10% FBS were plated in a 6-well plate in triplicate. 24 hours after plating, the indicated concentrations of BHPI, or the active enantiomer 105 (−) of C-105 [(−)-105] was added. After 24 hours, the cells were harvested, and the % dead cells was determined by automated Trypan Blue exclusion using the Countess II automated hemocytometer. Percentage of viable cells was calculated by doing 100-(Cell Death %). (n=3±SEM).
TYS cells were incubated for 24 hours with 35 nM of BHPI or 35 nM of each of the indicated test compounds: 2, 4, and 105. Cell death was determined using the instrument-based Trypan Blue exclusion assay.
TYS cells were incubated for 24 hours with 50 nM of BHPI or 50 nM of each of the indicated test compounds: 4, 6 and 105. Cell death was determined using the instrument-based Trypan Blue exclusion assay. (n=3±SEM).

[8] = test system: T47D cells; test: Trypan Blue exclusion cell death assay, T47D / T47D-Luc; type: cell-based, human; settings: 75 nM, 24 hours
From the text: as §1
as §2, with “After inserting the slide into the Fisher TC20 counting is automatic (these many cells are needed because an accurate ratio of Trypan Blue positive to Trypan Blue negative cells requires about 200 cells in the field the instrument counts).” left out
The Trypan Blue cell death assay was used to compare the ability of the active (−) enantiomer of C-105 and BHPI to kill estrogen receptor α (ERα) positive T47D, human breast cancer cells expressing luciferase (T47D-Luc cells). […] After 24 hours, the cells were harvested, and the % dead cells was determined by automated Trypan Blue exclusion using the Countess II automated hemocytometer. Percentage of viable cells was calculated by doing 100-(Cell Death %). […]
T47D cells were incubated for 24 hours with 75 nM of BHPI or 75 nM of each of the indicated test compounds: 4 and 6. Cell death was determined using the instrument-based Trypan Blue exclusion assay. […]
T47D cells were treated for 24 hours with 100 nM BHPI, or with 100 nM of each of the test compounds: 6, 8, and 105. […] Cell death was determined using the instrument-based Trypan Blue exclusion assay. […]

[9] = test system: OVCAR-3 cells; settings: OVCAR-3 orthotopic xenograft

Compound: C[C@]12CC[C@@H]3c4ccc(O)cc4C[C@@H](CCCCCCCCC[S+]([O-])CCCC(F)(F)C(F)(F)F)[C@H]3[C@@H]1CC[C@@H]2O (stereo partly shown) [fulvestrant, reference compound]
- killing of TDG-Luc cells, dose response [1]: do not kill
- tumor response [2]: dramatic effects against these large and established tumors are not obtained
- ability to kill TYS and TDG cells [3]: no ability at all to kill

Compound: CC/C(=C(\c1ccc(O)cc1)c1ccc(OCCN(C)C)cc1)c1ccccc1 [OHT, z-4-hydroxytamoxifen, reference compound]
- killing of TDG-Luc cells, dose response [1]: do not kill
- cytotoxic versus cytostatic phenotype [4]: cytostatic

Compound: COc1ccc(C2(c3ccc(O)cc3)C(=O)Nc3c(C(F)(F)F)cccc32)cc1 (stereo not shown) [Compound 4, 3-(4-hydroxyphenyl)-3-(4-methoxyphenyl)-7-(trifluoromethyl)indolin-2-one]
- effectiveness in killing compared with BHPI [5]: more effective than BHPI
- cell death of MCF-10A cells [6]: neither BHPI nor any of the test compounds induce significant death
- ability to kill TDG cells compared to BHPI ([1]; 75 nM): greatly increased ability to kill
- ability to kill TYS cells compared to BHPI ([7]; 35 nM): greatly increased ability to kill
- ability to kill TYS cells compared to BHPI ([7]; 50 nM): increased ability to kill
- ability to kill T47D cells compared to BHPI [8]: greatly increased ability to kill

Compound: COc1ccc(C2(c3ccc(O)cc3)C(=O)Nc3c(C)cccc32)cc1 (stereo not shown) [Compound 2, 3-(4-hydroxyphenyl)-3-(4-methoxyphenyl)-7-methylindolin-2-one]
- effectiveness in killing compared with BHPI [5]: more effective than BHPI

Compound: CC/C(=C(\c1ccccc1)c1ccc(OCCN(C)C)cc1)c1ccccc1 [tamoxifen]
- ability to kill TYS and TDG cells [3]: no ability at all to kill

Compound: Cc1cccc2c1NC(=O)C2(c1ccc(O)cc1)c1ccc(OC(F)(F)F)cc1 (stereo not shown) [Compound 6, 3-(4-hydroxyphenyl)-7-methyl-3-(4-(trifluoromethoxy)phenyl)indolin-2-one]
- effectiveness in killing compared with BHPI [5]: more effective than BHPI
- cell death of MCF-10A cells [6]: neither BHPI nor any of the test compounds induce significant death

Compound: CC(=O)O[C@H]1C(=O)[C@@]2(C)[C@H]([C@H](OC(=O)c3ccccc3)[C@]3(O)C[C@H](OC(=O)[C@H](O)[C@@H](NC(=O)c4ccccc4)c4ccccc4)C(C)=C1C3(C)C)[C@]1(OC(C)=O)CO[C@@H]1C[C@@H]2O [paclitaxel]
- tumor growth / detectability [9]: ineffective
